Columns and labels:
[1] = test system: epinephrine-induced pulmonary edema; assay: Epinephrine-induced pulmonary edema; format: in vivo, rat; conditions: 10 nmol/kg i.v. 10 minutes before epinephrine bitartrate 10 μg/kg i.v.; lungs 30 minutes after Epi; Saline + Epi 6.2 ± 0.3
Description: Male Sprague-Dawley rats weighing 260±9 g (Simonsen Labs, Gilroy, Calif.) were used in all experiments. […] This single dose of Epi is sufficient to produce a non-lethal pulmonary edema in the pentobarbital-anesthetized rat. Thirty minutes after Epi, animals were euthanized with concentrated pentobarbital and the lungs were removed. […] Lungs were blotted on paper towels and weighed (wet wt.), then placed in a 80° C. oven for 24 hour and re-weighed again (dry wt.). The value 1000 (wet wt.-dry wt.)/body wt. was termed the edema index. All data are presented as mean ± SEM. Statistical significance was assessed by analysis of variance (ANOVA) with the Studentized range-test.

[2] = test system: heat induced edema in rat paws; assay: Heat injury to the skin: paw edema after immersion in 58° C. water; format: in vivo; conditions: for ED50 (nmol/kg), inhibition of heat-induced edema / ED50 (μg/kg), inhibition of heat-induced edema: % increase in paw water content 30 minutes after heat injury, as % of saline control
Description: Peptides, obtained from Peninsula Laboratories or Bachem Laboratories, were dissolved in sterile saline and injected intravenously 10 minutes before exposure to heat.
After removal of the saline-treated animal's paw from 58° C. water, the paw's skin became red, followed by progressive swelling from an initial volume of about 1.5 ml to a net increase of 0.77 ml within 5 minutes.
To compare the potency of the peptides, the following method was used. Thirty minutes after heat injury, rats were killed with an over-dose of concentrated sodium pentobarbital, and both paws cut off at the ankle joint and weighed. All paws were then dried in an oven at 80° C. for 24 hours and re-weighed to obtain % increase in water content as: [formula]
The rat was euthanized 30 minutes later with concentrated pentobarbital and both paws removed by cutting at the ankle joint and weighed. The paws were then dried at 80° C. for 24 hours. Controls received only saline at 0.1 ml/kg i.v. The increase in the water content of the heated paw was calculated as: heated paw (wet wt.--dry wt.)--unheated paw (wet wt.--dry wt.).

blood pressure = assay: Blood pressure (mean arterial pressure) after i.v. injection; format: in vivo; conditions: 10 nmol/kg i.v.; FIG. 4
Description: Blood pressure was monitored of animals to which 10 nmol/kg of different compounds were administered i.v. One administration was of saline as control. […] Blood pressure was monitored at intervals over a thirty minute period after injection.

[3] = test system: vascular leakage from brain cortex after freeze injury; assay: Cerebral cortex freeze injury: Monastral blue vascular leakage; format: in vivo, rat; conditions: 4 nmol/kg i.v. 10 minutes before freeze injury
Description: (§1) Experiments were conducted on 260±6 (S.D.) male Sprague-Dawley rats from Simonsen Laboratories (Gilroy, Calif.). Animals were injected with sodium pentobarbital, 60 mg/kg i.p. Ten to 15 minutes later, after anesthesia was signaled by loss of the righting reflex and motor responses to tail pinch, Monastral blue B (used to estimate leakage of macromolecules from blood vessels), suspended in saline at 30 mg/ml (Sigma Co., St. Louis, Mo.), was injected 60 mg/kg i.v. at a rate of approximately 0.2 ml/100 g body weight/min into a branch of the femoral vein. Procedures for inducing vascular leakage began three minutes after Monastral blue infusion.
This model of vasogenic edema in brain tissues was first described by Chan et al. (1983). Anesthetized rats were mounted on a David Kopf stereotaxic instrument and a 2 to 2.5 cm midline incision made in the shaved scalp. After parting the skin and connective tissue to expose the skull, a 60 mm^2 plate, connected to a brass cup filled with dry ice and acetone and maintained at -50° C., was applied to the skull for four minutes. One hour later, the animal was perfused through the aorta with saline, followed by 10% NBF, and then the brain was removed and stored in 10% NBF for at least two days before further analysis. Sections of membranes covering the cortex were also dissected from the underlying tissues and separately examined.
To measure the area of dye distribution and the intensity of dye staining on the surfaces of the tissues, we used an image-processing system (JAVA, Jandel Video Analysis System, Corte Madera, Calif.) in which a video image, composed of pixels with different gray intensities, was subjected to numeric analysis. Samples of the abdominal muscle and brain were placed on a non-reflective coated glass board illuminated by six 60 watt fluorescent bulbs placed 1.65 m above the tissues and the images recorded under these constant conditions, without magnification, on video film. The areas of dye distribution were demarcated with a mouse-pointer device and the average intensity in the defined areas was obtained. […]

[4] = test system: vascular leakage from abdominal muscle after celiotomy; assay: Skeletal muscle injury (celiotomy): Monastral blue vascular leakage; format: in vivo, rat; conditions: for Lesion Size (x104): area x intensity; for Area (mm^2) of dye staining: samples 30 minutes after celiotomy
Description: as §1
The abdomen was shaved and a 4 cm scalpel cut was made in the midline. After manually parting the skin, an incision of equal length was made in the rectus abdominus and the skin was then pushed together to cover the wound. Thirty minutes after celiotomy, the rat was euthanized with an i.v. overdose of pentobarbital and the skin and muscle surrounding the site of incision were removed and fixed in 10% neutral-buffered formalin (NBF) for at least 2 days before further analysis.
To measure the area of dye distribution and the intensity of dye staining on the surfaces of the tissues, we used an image-processing system (JAVA, Jandel Video Analysis System, Corte Madera, Calif.) in which a video image, composed of pixels with different gray intensities, was subjected to numeric analysis. Samples of the abdominal muscle and brain were placed on a non-reflective coated glass board illuminated by six 60 watt fluorescent bulbs placed 1.65 m above the tissues and the images recorded under these constant conditions, without magnification, on video film. The areas of dye distribution were demarcated with a mouse-pointer device and the average intensity in the defined areas was obtained. To calibrate light intensity on the JAVA system, various concentrations of Monastral blue B (0.0625 to 16 mg/ml) were placed on white filter paper and the intensity scale set from 0 to 255 units. The relationship of light intensity, which is the degree of blueness in arbitrary units, to Monastral blue B concentrations (mg/ml) was: light intensity =124+116 log MB, an equation obtained by linear regression with a correlation coefficient of r= 0.98. The term "lesion size", applied to the area of staining multiplied by its light intensity, represents a two-dimensional measurement of vascular leakage. This assessment was considered adequate because the injuries were to the surfaces of the muscle and cortex and the lesions were not more than a few mm deep. To further characterize the sites of dye leakage from blood vessels, samples of muscle and cortex, cut to approximately 500 μm thickness, were mounted in glycerol gelatin for microscopic examination.
Animals were randomly assigned to treatments using a paired control design with a minimum of 6 rats per group. Data were expressed as the mean ± S.E.M. and the ED50 and 95% confidence limits were estimated by the method of Litchfield and Wilcoxon (1949). The Student's test was used for comparison of groups.

substance P = assay: Salivary secretion induced by substance P injections; format: in vivo; conditions: substance P 40 μg/kg s.c., rat
Text: Thus, a chemical (Such as illustrated by CP-96,345) that antagonizes the inflammatory mediator, substance P, is not sufficient to prevent edema after thermal injury.

neurotensin (8-13) [NT (8-13)]
Edema Index, 1000 (wet wt.-dry wt.)/body wt. [1]: 4.7 ± 0.2 | swelling response (paw volume change) ([2]; FIG. 1, different doses before 58° C. water, paw volume up to 30 minutes): dose-dependent suppression | ED50 (nmol/kg), inhibition of heat-induced edema ([2]; i.v. 10 minutes before heat): 1.9 nmol/kg | ED50 (μg/kg), inhibition of heat-induced edema ([2]; i.v. 10 minutes before heat): 1.6 µg/kg | hypotensive effect (blood pressure over 30 minutes) (blood pressure): lacked hypotensive effect

neuromedin N (IPYIL; Neuromedin N; UniProt P30990 144-148, looked up) [peptide of the neurotensin family]
ED50 (nmol/kg), inhibition of heat-induced edema ([2]; i.v. 10 minutes before heat): 10.0 nmol/kg | ED50 (μg/kg), inhibition of heat-induced edema ([2]; i.v. 10 minutes before heat): 7.5 µg/kg

LANT-6
swelling after heat injury ([2]; 0.5 mg/kg i.v., control 69±2%, N=6 pairs, P<0.001): 2±1%

xenopsin
ED50 (nmol/kg), inhibition of heat-induced edema ([2]; i.v. 10 minutes before heat): 0.9 nmol/kg | ED50 (μg/kg), inhibition of heat-induced edema ([2]; i.v. 10 minutes before heat): 0.88 µg/kg

Kinetensin
ED20, inhibition of heat-induced edema ([2]; i.v. 10 minutes before heat, dose range 200-800 nmol/kg): 420 nmol/kg

N-acetyl-neurotensin (8-13) [AcNT8-13]
Lesion Size (x103) ([3]; area x intensity, saline 5.7 ± 0.2): 2.4 ± 0.3 x103 | Area (mm^2) of dye staining ([3]; brain removed sixty minutes later, saline 38 ± 2): 21 ± 2 mm^2 | Intensity of dye staining ([3]; saline 151 ± 4): 119 ± 4 | Edema Index, 1000 (wet wt.-dry wt.)/body wt. [1]: 4.9 ± 0.2 | Lesion Size (x104) ([4]; 4 nmol/kg i.v. 5 minutes after celiotomy, saline 10.4 ± 0.5): 5.3 ± 0.4 x104 | Intensity of dye staining ([4]; 4 nmol/kg i.v. 5 minutes after celiotomy, saline 137 ± 31): 108 ± 5 | Area (mm^2) of dye staining ([4]; 4 nmol/kg i.v. 5 minutes after celiotomy, saline 758 ± 39): 493 ± 27 mm^2 | Lesion Size (x104) ([4]; 4 nmol/kg i.v. 10 minutes before celiotomy, saline 12.7 ± 0.4): 5.0 ± 0.2 x104 | Intensity of dye staining ([4]; 4 nmol/kg i.v. 10 minutes before celiotomy, saline 149 ± 2): 126 ± 2 | Area (mm^2) of dye staining ([4]; 4 nmol/kg i.v. 10 minutes before celiotomy, saline 852 ± 27): 399 ± 18 mm^2 | ED50 (nmol/kg), inhibition of heat-induced edema ([2]; i.v. 10 minutes before heat): 2.1 nmol/kg | ED50 (μg/kg), inhibition of heat-induced edema ([2]; i.v. 10 minutes before heat): 1.8 µg/kg | hypotensive effect (blood pressure over 30 minutes) (blood pressure): lacked hypotensive effect

COc1ccccc1CN[C@H]1C2CCN(CC2)[C@H]1C(c1ccccc1)c1ccccc1 [CP-96,345, reference compound]
Increase in Water Content of Heated Paw ([2]; 4 mg/kg i.v. 10 minutes before 58° C. water for one minute, 30 minutes later, saline 1117 ± 33, not significantly different): 1057 ± 24 mg | salivary secretion induced by substance P (substance P): prevent salivary secretion

Reference: US5374621A (Regents of the University of California, priority 1991, dated 1994)
